Like-named read-outs stand apart in the source and are kept apart here.
What was measured:
[1] = system: human colon carcinoma cell line CX-1; experiment: Colony formation assay, human colon carcinoma CX-1; assay type: cell-based; details: Table III; for IC50: Homo sapiens, Colon carcinoma cell, read-out: CX-1 (IC50); for IC50 / CX-1 (IC50): 24 h treatment, colony count after 7 to 10 days; for Selectivity (ratio of IC50 for CV-1 and IC50 for CX-1): CV-1/CX-1
[2] = system: human pancreatic carcinoma CRL 1420 cell line; experiment: Colony formation assay, human pancreatic carcinoma CRL 1420; assay type: cell-based; details: Table VII; for IC50: Homo sapiens, 24 h; for Selectivity (CV-1 IC50 / CRL-1420 IC50): CV-1/CRL-1420
From the text: (§1) The control received culture media only.
The Selectivity values, CRL 1420 values and CV-1 values for compounds of the General Formulas (1) to (6) used in the present invention are shown in Table VII below.

human melanoma LOX = experiment: Survival of nude mice implanted with human melanoma LOX; assay type: in vivo, human melanoma in male athymic Swiss nu/nu mouse; details: Mus musculus, ip, 24 h, read-out: T/C (survival)
Protocol: LOX, a human melanoma cell line, grown subcutaneously in nude mice was excised, trypsinized to yield a single cell suspension using a metal grid with a […]. Red blood cells were lysed by incubation with 0.17 molar ammonium chloride at 4° C. for 20 minutes. Five million viable trypan blue negative cells made up in 0.1 ml of Dulbecco modified Eagles' medium (DME) were injected into the peritoneal cavity of a male athymic Swiss nu/nu mouse. The control group and each treatment group consisted of 5 to 10 mice. Treatment was commenced the following day by intraperitoneal injection.
Ten control mice received 0.25 ml of 2% dextrose on those days the treated groups were injected with the compounds of this invention. The compounds of the General Formulas. (1) to (6) used in this invention which were tested are listed in Table VIII below and the results obtained are shown in Table VIII and FIG. 1-6 of the accompanying drawings. T/C is the ratio, expressed as a percentage of the mean survival age of the treated group to the mean survival age of the untreated control group.

[3] = system: normal monkey kidney epithelial cell line CV-1; experiment: Colony formation assay, normal monkey kidney epithelial cells CV-1; details: for IC50: Primates, Epithelial cell;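 on all read-outs here: colonies visualized by crystal violet staining, incubation at 37 °C, IC50 relative to untreated wells given culture medium alone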
[4] = system: human melanoma LOX cell line; experiment: Colony formation assay, human melanoma LOX; assay type: cell-based; details: Table V; for IC50: Homo sapiens, LOX, 24 h, read-out: LOX (IC50); for Selectivity (CV-1 IC50 / LOX IC50): CV-1/LOX
From the text: as §1

[5] = system: human bladder carcinoma EJ cell line; experiment: Colony formation assay, human bladder carcinoma EJ; assay type: cell-based; details: Table IV; for IC50: Homo sapiens, EJ, 24 h, read-out: EJ (IC50); for Selectivity (CV-1 IC50 / EJ IC50): CV-1/EJ
From the text: as §1

[6] = system: human breast carcinoma MCF-7 cell line; experiment: Colony formation assay, human breast carcinoma MCF-7; assay type: cell-based; details: Table VI; for IC50: Homo sapiens, MCF7, 24 h, read-out: MCF-7 (IC50); for Selectivity (CV-1 IC50 / MCF-7 IC50): CV-1/MCF-7
From the text: as §1
The Selectivity values, MCF-7 values and CV-1 values for compounds of the General Formulas (1) to (6) used in the present invention are shown in Table VI below.

[7] = read-out: CV-1 (IC50), Table III, 24 h treatment, colony count after 7 to 10 days
[8] = read-out: CV-1 (IC50), Table VII
[9] = Table III, 24 h treatment, colony count after 7 to 10 days
[10] = read-out: CV-1 (IC50), Table IV
[11] = read-out: CV-1 (IC50), Table VI

CCN1C(=CC=c2sc(=Cc3sc4c5ccccc5ccc4[n+]3CCO)n(CC)c2=O)Sc2ccc3ccccc3c21 [Compound 53]
IC50 [1]: 0.05 µg/mL | Selectivity (ratio of IC50 for CV-1 and IC50 for CX-1) [1]: 400 | IC50 ([2]; 24 h treatment): 0.18 µg/mL | Selectivity (CV-1 IC50 / CRL-1420 IC50) [2]: 111 | response vs control in vivo at 20 mg/kg (human melanoma LOX; i.p. on day 1, 3, 6, 9, 13, 16): 222% | IC50 [3, 7]: 20 µg/mL | IC50 [3, 8]: 20 µg/mL

CCN1C(=CC=c2sc(=CC3=[N+](CC)CCS3)n(CC)c2=O)C=Cc2ccccc21 [Compound 244]
response vs control in vivo at 10 mg/kg (human melanoma LOX; i.p. on day 1, 3, 5, 7, 9): 153%

CCN1C(C)=CSC1=CC=c1sc(=Cc2sc3ccccc3[n+]2CC)n(CC)c1=O [Compound 96]
CX-1 (IC50) [1]: 0.03 µg/mL | Selectivity (ratio of IC50 for CV-1 and IC50 for CX-1) [1]: 667 | IC50 ([4]; 24 h treatment): 0.09 µg/mL | Selectivity (CV-1 IC50 / LOX IC50) [4]: 222 | response vs control in vivo at 2 mg/kg (human melanoma LOX; 2 mg/kg, i.p. on day 1, 2, 3*, 6*, 9*, 13*, 16* (*4 mg/kg)): 253% | IC50 ([3]; read-out: CV-1 (IC50), Table V): 20 µg/mL

CCC[n+]1c(C=c2sc(=CC=C3Sc4c(ccc5ccccc45)N3CC)c(=O)n2CC)sc2cc(C)c(OCC)cc21 [Compound 6]
IC50 [1]: 0.025 µg/mL | Selectivity (ratio of IC50 for CV-1 and IC50 for CX-1) [1]: 400 | response vs control in vivo at 5 mg/kg (human melanoma LOX; i.p. on day 1, 3, 5, 7): 126% | IC50 ([3]; read-out: CV-1 (IC50)): 10 µg/mL

CCN1C(=CC=c2sc(=Cc3scc[n+]3CC)n(CC)c2=O)Sc2ccc3ccccc3c21 [Compound 41]
IC50 ([2]; 24 h treatment): 0.05 µg/mL | Selectivity (CV-1 IC50 / CRL-1420 IC50) [2]: 120 | response vs control in vivo at 5 mg/kg (human melanoma LOX; i.p. on day 1, 5, 9): 128% | IC50 [3, 8]: 1.5 µg/mL

CCN1CCSC1=CC=c1sc(=Cc2sc3c4ccccc4ccc3[n+]2CC)n(CC)c1=O [Compound 150]
CX-1 (IC50) [1]: 0.01 µg/mL | Selectivity (ratio of IC50 for CV-1 and IC50 for CX-1) [1]: 100 | response vs control in vivo at 5 mg/kg (human melanoma LOX; i.p. on day 1, 2, 9, 13, 16): 216% | CV-1 (IC50) [3, 9]: 1 µg/mL

CCN1C(=CC=c2oc(=Cc3sc(-c4ccccc4)c(-c4ccccc4)[n+]3CC)n(CC)c2=O)Oc2ccccc21 [Compound 330]
IC50 [1]: 0.025 µg/mL | Selectivity (ratio of IC50 for CV-1 and IC50 for CX-1) [1]: 100 | response vs control in vivo at 5 mg/kg (human melanoma LOX; i.p. on day 1, 3, 5, 7, 9): 128% | IC50 [3, 7]: 2.5 µg/mL

CCN1C(=CC=c2sc(=Cc3sc4c5ccccc5ccc4[n+]3CC)n(CC)c2=O)Sc2ccc3ccccc3c21 [Compound 31]
IC50 [1]: 0.025 µg/mL | Selectivity (ratio of IC50 for CV-1 and IC50 for CX-1) [1]: 400 | response vs control in vivo at 40 mg/kg (human melanoma LOX; 40 mg/kg, i.p. on day 1, 2, 3, 4, 8, 10, 17): 169% | IC50 [3, 7]: 10 µg/mL

CCN1C(=CC=c2sc(=Cc3sc4c5ccccc5ccc4[n+]3CC)n(CC)c2=O)Sc2ccc3ccccc3c21 [Compound 51]
CX-1 (IC50) [1]: 0.03 µg/mL | Selectivity (ratio of IC50 for CV-1 and IC50 for CX-1) [1]: 333 | IC50 ([5]; 24 h treatment): 0.04 µg/mL | IC50 ([4]; 24 h treatment): 0.09 µg/mL | Selectivity (CV-1 IC50 / LOX IC50) [4]: 222 | IC50 ([2]; 24 h treatment): 0.07 µg/mL | Selectivity (CV-1 IC50 / CRL-1420 IC50) [2]: 286 | response vs control in vivo at 20 mg/kg (human melanoma LOX; i.p. on day 1, 2, 3, 6, 9, 13): 174%

CCn1c(=Cc2sc(-c3ccccc3)c(-c3ccccc3)[n+]2CC)sc(=CC=C2N(C)c3ccccc3C2(C)C)c1=O [Compound 204]
response vs control in vivo at 5 mg/kg (human melanoma LOX; i.p. on day 1, 4, 7, 10, 13, 16, 19, 22): 174%

CCN1C(=CC=c2sc(=Cc3sc4c5ccccc5ccc4[n+]3C)n(CC)c2=O)Sc2ccc3ccccc3c21 [Compound 49]
CX-1 (IC50) [1]: 0.03 µg/mL | Selectivity (ratio of IC50 for CV-1 and IC50 for CX-1) [1]: 667 | IC50 ([5]; 24 h treatment): 0.045 µg/mL | Selectivity (CV-1 IC50 / EJ IC50) [5]: 444 | IC50 ([4]; 24 h treatment): 0.075 µg/mL | Selectivity (CV-1 IC50 / LOX IC50) [4]: 267 | IC50 ([6]; 24 h treatment): 0.06 µg/mL | Selectivity (CV-1 IC50 / MCF-7 IC50) [6]: 333 | IC50 ([2]; 24 h treatment): 0.075 µg/mL | Selectivity (CV-1 IC50 / CRL-1420 IC50) [2]: 267 | IC50 [3, 10]: 20 µg/mL | IC50 ([3]; read-out: CV-1 (IC50), Table V): 20 µg/mL | IC50 [3, 11]: 20 µg/mL | IC50 [3, 8]: 20 µg/mL

CCN1CCSC1=CC=c1sc(=Cc2sc3ccccc3[n+]2CCOC)n(CC)c1=O [Compound 145]
IC50 [1]: 0.05 µg/mL | Selectivity (ratio of IC50 for CV-1 and IC50 for CX-1) [1]: 200 | IC50 ([5]; 24 h treatment): 0.082 µg/mL | Selectivity (CV-1 IC50 / EJ IC50) [5]: 122 | IC50 ([4]; 24 h treatment): 0.064 µg/mL | Selectivity (CV-1 IC50 / LOX IC50) [4]: 156 | IC50 ([6]; 24 h treatment): 0.1 µg/mL | Selectivity (CV-1 IC50 / MCF-7 IC50) [6]: 100 | IC50 ([2]; 24 h treatment): 0.082 µg/mL | Selectivity (CV-1 IC50 / CRL-1420 IC50) [2]: 122 | IC50 ([3]; read-out: CV-1 (IC50)): 10 µg/mL

CCN1C(=CC=c2sc(=Cc3sc4c5ccccc5ccc4[n+]3C)n(CC)c2=O)Sc2ccc3ccccc3c21 [Compound 52]
CX-1 (IC50) [1]: 0.03 µg/mL | Selectivity (ratio of IC50 for CV-1 and IC50 for CX-1) [1]: > 667 | EJ (IC50) ([5]; 24 h treatment): 0.05 µg/mL | Selectivity (CV-1 IC50 / EJ IC50) [5]: > 400 | LOX (IC50) ([4]; 24 h treatment): 0.08 µg/mL | Selectivity (CV-1 IC50 / LOX IC50) [4]: > 250 | MCF-7 (IC50) ([6]; 24 h treatment): 0.03 µg/mL | Selectivity (CV-1 IC50 / MCF-7 IC50) [6]: > 666 | CRL-1420 (IC50) ([2]; 24 h treatment): 0.06 µg/mL | Selectivity (CV-1 IC50 / CRL-1420 IC50) [2]: > 333 | response vs control in vivo at 10 mg/kg (human melanoma LOX; i.p. on day 1, 2, 3, 6, 9): 168% | CV-1 (IC50) [3, 9]: > 20 µg/mL | CV-1 (IC50) ([3]; Table IV): > 20 µg/mL | CV-1 (IC50) ([3]; Table V): > 20 µg/mL | CV-1 (IC50) ([3]; Table VI): > 20 µg/mL | CV-1 (IC50) ([3]; Table VII): > 20 µg/mL

CCN1C(=CC=c2sc(=Cc3sc4c5ccccc5ccc4[n+]3C)n(CC)c2=O)Sc2ccc3ccccc3c21 [Compound 33]
IC50 [1]: 0.02 µg/mL | Selectivity (ratio of IC50 for CV-1 and IC50 for CX-1) [1]: 1000 | response vs control in vivo at 10 mg/kg (human melanoma LOX; i.p. on day 1, 2, 3, 4, 5, 7, 8, 9, 10, 11): 173% | IC50 [3, 7]: 20 µg/mL

CCN1CCSC1=CC=c1sc(=Cc2sc3ccc(OC)cc3[n+]2CC)n(CC)c1=O [Compound 125]
IC50 [1]: 0.04 µg/mL | Selectivity (ratio of IC50 for CV-1 and IC50 for CX-1) [1]: 200 | IC50 ([5]; 24 h treatment): 0.06 µg/mL | Selectivity (CV-1 IC50 / EJ IC50) [5]: 133 | IC50 ([4]; 24 h treatment): 0.06 µg/mL | Selectivity (CV-1 IC50 / LOX IC50) [4]: 133 | IC50 ([6]; 24 h treatment): 0.06 µg/mL | Selectivity (CV-1 IC50 / MCF-7 IC50) [6]: 133 | IC50 ([2]; 24 h treatment): 0.05 µg/mL | Selectivity (CV-1 IC50 / CRL-1420 IC50) [2]: 160 | IC50 [3, 10]: 8 µg/mL | IC50 ([3]; read-out: CV-1 (IC50), Table V): 8 µg/mL | IC50 [3, 11]: 8 µg/mL | IC50 [3, 8]: 8 µg/mL

Reference: patent US5861424A, “Composition and method for treating cancer” (priority 1995, dated 1999)
